This is an account of results in US10159697B2, “Methods for enhancing hematopoietic stem/progenitor cell engraftment” (CHILDREN'S MEDICAL CENTER CORPORATION, priority 2009, dated 2018).

This test deals with hematopoietic stem and/or progenitor cell engraftment. As to the kind of experiment: adult zebrafish whole kidney marrow competitive transplantation assay. Format: in vivo. The following applies: for engraftment signal in pilot screen of 10 bioactive compounds: by four weeks post transplant, 10 recipients per treatment; for average G/R / percentage of positive recipients: green marrow cells incubated in vitro for 4 hrs, mixed with red marrow 1:4, 4 wpt, compared with DMSO control; for engraftment: in vitro incubation of green marrow with 10 μM dmPGE2 or 0.5 μM BIO at room temperature for 2-4 hours, by 4 weeks post transplant. From the text: A transparent adult zebrafish, casper, was used as a transplantation recipient. Casper is a double homozygous pigment mutant for the nacre allele (devoid of melanocytes) and the roy allele (devoid of iridophores and reduced melanoyctyes), which allows direct visualization of GFP labeled hematopoietic stem cell homing and engraftment without killing the recipients. Two marrows are used: Tg(β-actin:GFP) and Red GloFish® respectively to compete with each other at varying ratios e.g., 1:4, which can generate robust competition between the two donors. In one embodiment, the red marrow is the competitor, as well as an internal control for the transplant. At different timepoints post-transplant, the recipients are anesthetized and two pictures for each recipient are taken by a fluorescence stereomicroscope with GFP/DsRed filters individually. Images are analyzed by software, such as ImageJ, which can quantify the GFP/DsRed fluorescence intensity. The relative engraftment efficiency of the manipulated green marrow is measured by the ratio of the GFP intensity over the DsRed intensity within the same kidney region after background subtraction (labeled as G/R).
A double-color labeled competitive transplantation assay was developed, as shown by the flow chart in FIG. 1A. GFP+ and DsRed2+ marrow cells are isolated from Tg(β-actin:GFP) and commercially available Red GloFish®. The two donor populations are mixed at a certain ratio and injected into sublethally irradiated casper recipients retro-orbitally. The DsRed2+ marrow is used as the competitor. Four weeks later, the engraftment is visualized by fluorescence dissection scope. Pictures of GFP and DsRed engraftment are taken for each recipient and analyzed by ImageJ. The kidney region is manually selected and the average fluorescence intensities of both green and red are measured within the same region. The average background intensity is measured in a region outside the fish, and subtracted from the kidney intensity. The calculation of the relative engraftment is shown by the equation in FIG. 1B.
Adult zebrafish donors are anaesthetized with 0.2% tricaine before blood and kidney collection. Peripheral blood is obtained from adult casper by cardiac puncture with micropipette tips coated with heparin and collected into 0.9×PBS containing 5% FCS. About 3-5 million red blood cells are harvested from one donor. To dissect whole kidney marrow (WKM), a ventral midline incision is made on the donor fish. Whole kidney is dissected out and placed into ice-cold 0.9×PBS containing 5% FCS. Single-cell suspensions are generated by aspiration followed by filtering through a […] nylon mesh filter into a 50 ml conical tube. The flow-though part is diluted with a final volume of 25 ml and centrifuged at 1,500 rpm for 8 minutes. The supernatant is discarded and the pellet cells are resuspended in 1 ml 0.9×PBS containing 5% FCS. The number of viable cells are counted with a hemocytometer. […] Finally, the peripheral blood and kidney marrow cells are centrifuged at 1,500 rpm for 8 minutes, resuspended in 0.9×PBS containing 5% FCS and mixed at a certain ratio and concentration. Casper recipients are anesthetized in tricaine. 4 μl of the cell suspension mixture described above is injected into the circulation retro-orbitally through a Hamilton syringe (26 s gauge, 10 μl volume). […] Transplanted recipients can be anesthetized in tricaine and visualized over time on a Zeiss Discovery V8 stereomicroscope with a 1.2× PlanApo lens and GFP/DsRed filters. Images are captured using AxioVision software and for each recipient, two images are taken with GFP or DsRed filter respectively. The images are all saved in .tif format and analyzed using ImageJ software.

As for `O=C1Nc2cc(Br)ccc2C1=C1Nc2ccccc2C1=NO` [BIO, 6-bromorindirubin-3′-oxime], the “engraftment signal in pilot screen of 10 bioactive compounds” value is given as “enhanced signal above the rest of the chemicals tested”, the “average G/R” value is “significantly increased”, the “percentage of positive recipients” value is on record as “significantly increased” and the engraftment result is “increase engraftment”. Moreover, the “score in the competitive transplant model” value (“score” for short) (at 3 months) was “score positive”. Moreover, for the setting “at 4 weeks”, the “score” value is given as “score positive”.

In the case of `CCCCC(C)(C)[C@H](O)/C=C/[C@H]1[C@H](O)CC(=O)[C@@H]1C/C=C\CCCC(=O)O` [dmPGE2, 16-,16-dimethyl Prostaglandin E2], the “engraftment signal in pilot screen of 10 bioactive compounds” value is recorded as “enhanced signal above the rest of the chemicals tested”, the “average G/R” value is listed as “significantly increased”, the “percentage of positive recipients” value is listed as “significantly increased” and the engraftment result is “increase engraftment”. Besides, the “score” value (at 3 months) was “score positive”. Moreover, the “score” value (at 4 weeks) is “score positive”.
